Patent US8926961B2, “HPV E6 protein T cell epitopes and uses thereof” (Board Of Trustees of The University Of Arkansas, priority 2007, dated 2015)

What was measured:
[1] = test system: CD8 T-cell; test: ELISPOT assay of CD8 T-cell responses in women followed for abnormal Pap smear; assay type: cell-based, human; conditions: women with abnormal Pap smear
Protocol: Women who were followed, but untreated for abnormal Pap smear results, were enrolled. HPV-DNA testing using the Linear Array HPV Geotyping Test (Roche Diagnostics, Indianapolis, Ind.) and enzyme-linked immunospot (ELISPOT) assay using the HPV 16 E6 and E7 antigens were performed. The subjects were categorized into three groups: regressor (n=32), persistor/progressor (n=33), or indeterminate (n=20) based on comparisons of pathological diagnoses (Pap smear or biopsy) between the last clinic visit and the current clinic visit at which blood samples were collected.

[2] = test system: CD4+ T-cell; test: Interferon-γ ELISPOT assay of CD4+ T-cell responses in subjects with abnormal Pap smear; assay type: cell-based, human
Protocol: The role of CD4+ T-cell responses to the HPV-16 E6 and E7 proteins was examined in the outcomes of subjects being studied for abnormal Papanicolaouu (Pap) smear results. Subjects with a recent history of abnormal Papanicolaouu smear were eligible, and colposcopy guided biopsy was performed at enrollment. Interferon-γ enzyme-linked immunospot assay, and fluorescent activated cell sorter analysis were performed. Subjects with histological diagnoses of cervical intraepithelial neoplasia 1, 2, or 3 were considered to have short-term persistence of cervical abnormality and were called “persistors” (n=51) while those of normal histology were designated to be “regressors” (n=33). For the CD4+ T-cell responses, not only were the responses to E6 overall (Table 8) associated with a favorable clinical outcome, but also to a number of regions within the E6 protein. Furthermore, the regressors were more likely to have 2 or more E6-positive or E7-positive peptide regions as compared to the persistors (p=0.0035 or p=0.042 respectively) (Table 9).

[3] = test system: HPV 16 E6 peptide-specific T-cell clones (subject 18); assay type: cell-based, human; conditions: eight screen-positive T-cell clones of subject 18; HPV16 E6 121-145 region; 10 μM
[4] = test system: peptide-pulsed Epstein-Barr Virus-transformed B-lymphoblastoid cell line cells; test: Chromium release assay, subject 18 T-cell clones as effectors; assay type: cell-based, human; conditions: clones #83-18 and #87-18
Protocol: (§1) To identify putative restricting Human Leukocyte Antigen class I molecule, enzyme-linked immunospot assays were performed, as described above, using autologous Epstein-Barr Virus-transformed B-lymphoblastoid cell line cells sharing one or a few class I molecules with the subjects. The results were confirmed using chromium release assays in which at least two autologous Epstein-Barr Virus-transformed B-lymphoblastoid cell line cells expressing the putative Human Leukocyte Antigen class I molecule were tested. The Epstein-Barr Virus-transformed B-lymphoblastoid cell line cells were labeled with 100 μCi of sodium chromate (Na2^51CrO4), and were incubated with 10 μM of positive peptide. After plating the cells in 96-wells plate at 3×10^3/well, effector cells were added at multiple effector to target cell (E:T) ratios. After 5 hr of incubation, the supernatants were harvested and radioactivity was counted with a gamma counter (Packard Instruments, Meriden, Conn.). Percentage specific lysis was calculated as described (39).

[5] = test system: Human Leukocyte Antigen-matched HPV16 E7 11-20-pulsed targets; conditions: cited from earlier work
[6] = test system: HPV 16 E6 peptide-specific T-cell clones (subject 2); assay type: cell-based, human
[7] = test system: peptide-pulsed Epstein-Barr Virus-transformed B-lymphoblastoid cell line cells; test: Chromium release assay, subject 2 T-cell clones as effectors; assay type: cell-based, human; conditions: clones #76-2 and #78-2; three allogeneic B-LCL expressing HLA-B62; 10 μM peptide
Protocol: as §1

[8] = test system: Human Leukocyte Antigen class I molecule; test: Identification of the restricting Human Leukocyte Antigen molecules; assay type: cell-based
Protocol: as §1

[9] = high-risk HPV-positive subjects
[10] = subjects positive for HPV-16 related types

YGTTLEQQYNKPLCDLLIRCINCQK (E6 91-115 peptide from immunodominant epitope region of Human Papilloma Virus 16 E6 protein) [SEQ ID NO. 29]
Responses (number of immune responses detected towards the region) [1]: 11 | CD4+ T-cell responses, persistors ([2]; all subjects): 2% | CD4+ T-cell responses, regressors ([2]; all subjects): 18% | CD4+ T-cell responses, persistors [2, 9]: 2% | CD4+ T-cell responses, regressors [2, 9]: 23% | CD4+ T-cell responses, persistors [2, 10]: 0% | CD4+ T-cell responses, regressors [2, 10]: 22%

E6 131-145: 15-mer peptide in the HPV16 E6 121-145 region (RFHNIRGRWTGRCMS; UniProt P03126 131-145, looked up, fragment)
enzyme-linked immunospot response to individual 15-mer peptides [3]: positive | chromium release assay result ([4]; autologous B-LCL and B-LCL expressing A68 or A6801): positive | chromium release assay result ([4]; other allogeneic B-LCL including HLA-6802): negative

YMLDLQPETT [SEQ ID NO. 26]
patients whose cytotoxic T lymphocytes lysed peptide-pulsed targets ([5]; cervical cancer patients): two of three patients | Human Leukocyte Antigen restriction [5]: Human Leukocyte Antigen-A2

KFYSKISEY (E6 75-83 peptide from immunodominant epitope region of Human Papilloma Virus 16 E6 protein) [SEQ ID NO. 1]
serial dilution of the two peptides in enzyme-linked immunospot assay ([6]; 10^−5M to 10^−10M): equivalent | recognition of peptide-pulsed B-LCL by E6 75-83-specific T cell clones ([6]; clones #76-2 and #78-2, autologous and five allogeneic HLA-B62 B-LCL, 10 μM): recognized | number of spot forming units, 9-mer compared with surrounding 10-mers and 8-mers within ([6]; subject 2 T-cell clones): comparable number of spot forming units | spot forming units per well, series of 9-mer peptides within E6 71-85 ([6]; subject 2 T-cell clones): most number of spot forming units per well | lysis of peptide-pulsed B-LCL in chromium release assay [7]: lysed | Human Leukocyte Antigen Restriction Element [8]: HLA-B62

RREVYDFAFRDLCIVYRDGNPYAVC (E6 46-70 peptide from immunodominant epitope region of Human Papilloma Virus 16 E6 protein) [SEQ ID NO. 31]
Responses (number of immune responses detected towards the region) [1]: 8

EPDRAHYNIVTFCCKCDSTLRLCVQ (E7 46-70 peptide from immunodominant epitope region of Human Papilloma Virus 16 E7 protein) [SEQ ID NO. 30]
Responses (number of immune responses detected towards the region) [1]: 10
